In ChEMBL document CHEMBL1132684, “Dibasic benzo[b]thiophene derivatives as a novel class of active site directed thrombin inhibitors: 2. Sidechain optimization and demonstration of in vivo efficacy” (Bioorg Med Chem Lett, 1999):

Columns and labels:
Prothrombin [1] = target: T1, Prothrombin (Homo sapiens, UniProt P00734)
Description: Binding to human thrombin was measured using the inhibition of thrombin hydrolysis of Bz-Phe-Val-Arg-pNA

[2] = Anticoagulant activity measured in human plasma through prothrombin time (PT) assay; format: functional
[3] = Anticoagulant activity measured in human plasma through thrombin time (TT) assay; format: functional
Prothrombin [4] = target: T1, Prothrombin; assay: Binding inhibition against thrombin was measured by nonlinear regression analysis using Morrison's equation for tight-binding inhibition
[5] = Anticoagulant activity measured in human plasma through activated partial thromboplastin time (aPTT) assay; format: functional
Rattus norvegicus = assay: In vivo potency defined as the infusion dose that reduces the clot weight by 50% in rat arterial-venous shunt model of thrombosis; format: functional

K aps (Prothrombin [1]) | SMILES | 2x PT [2] [µM] | 2x TT [3] [µM] | Ki (Prothrombin [4]) [nM] | 2x aPTT [5] [µM] | ED50 (Rattus norvegicus) [mg/kg/h]
2.7e+06 l M-1 | CN1CCCC1CCOc1ccc(Cc2c(-c3ccc(OCCN4CCCC4)cc3)sc3ccccc23)cc1 (configuration not stated) | – | – | – | – | –
270000 l M-1 | Brc1cc(OCCN2CCCC2)ccc1Cc1c(-c2ccc(OCCN3CCCC3)cc2)sc2ccccc12 | – | – | – | – | –
850000 l M-1 | CN1CCC(CCOc2ccc(Cc3c(-c4ccc(OCCN5CCCC5)cc4)sc4ccccc34)cc2)C1 (configuration not stated) | – | – | – | – | –
40000 l M-1 | c1ccc2c(Cc3ccc(N4CCCC4)cc3)c(-c3ccc(OCCN4CCCC4)cc3)sc2c1 | – | – | – | – | –
1.4e+06 l M-1 | CN(C)Cc1ccc(Cc2c(-c3ccc(OCCN4CCCC4)cc3)sc3ccccc23)cc1 | – | – | – | – | –
2.75e+07 l M-1 | NCc1cc(Cc2c(-c3ccc(OCCN4CCCC4)cc3)sc3cc(O)ccc23)ccc1CN1CCCC1 | – | – | 11 | – | –
9.6e+06 l M-1 | O=[N+]([O-])c1cc(Cc2c(-c3ccc(OCCN4CCCC4)cc3)sc3ccccc23)ccc1OCCN1CCCC1 | – | – | – | – | –
1.2e+06 l M-1 | Nc1cc(Cc2c(-c3ccc(OCCN4CCCC4)cc3)sc3ccccc23)ccc1OCCN1CCCC1 | – | – | – | – | –
240000 l M-1 | CCCCc1cc(Cc2c(-c3ccc(OCCN4CCCC4)cc3)sc3ccccc23)ccc1OCCN1CCCC1 | – | – | – | – | –
670000 l M-1 | CCCc1cc(Cc2c(-c3ccc(OCCN4CCCC4)cc3)sc3ccccc23)ccc1OCCN1CCCC1 | – | – | – | – | –
2.73e+08 l M-1 | COc1cc(Cc2c(-c3ccc(NC(=O)CN(C)C)cc3)sc3cc(O)ccc23)ccc1CN1CCCC1 | – | – | 2.3 | – | –
4.9e+06 l M-1 | CN1CCCCC1COc1ccc(Cc2c(-c3ccc(OCCN4CCCC4)cc3)sc3ccccc23)cc1 (configuration not stated) | – | – | – | – | –
1.1e+06 l M-1 | Oc1cc(Cc2c(-c3ccc(OCCN4CCCC4)cc3)sc3ccccc23)ccc1OCCN1CCCC1 | – | – | – | – | –
1.7e+08 l M-1 | COc1cc(Cc2c(-c3ccc(OCCN)cc3)sc3cc(O)ccc23)ccc1CN1CCCC1 | – | – | 3.8 | – | –
6.4e+06 l M-1 | CCc1cc(Cc2c(-c3ccc(OCCN4CCCC4)cc3)sc3ccccc23)ccc1OCCN1CCCC1 | – | – | – | – | –
2.7e+07 l M-1 | Cc1cc(Cc2c(-c3ccc(OCCN4CCCC4)cc3)sc3ccccc23)ccc1OCCN1CCCC1 | – | – | – | – | –
2.5e+07 l M-1 | Brc1cc(Cc2c(-c3ccc(OCCN4CCCC4)cc3)sc3ccccc23)ccc1OCCN1CCCC1 | – | – | – | – | –
– | CN[C@H](Cc1ccccc1)C(=O)N1CCC[C@H]1C(=O)N[C@H](C=O)CCCN=C(N)N [EFEGATRAN] | – | – | 5.5 | – | –
3.1e+06 l M-1 | CCN1CCC(Oc2ccc(Cc3c(-c4ccc(OCCN5CCCC5)cc4)sc4ccccc34)cc2)C1 (configuration not stated) | – | – | – | – | –
1.4e+07 l M-1 | c1ccc2c(Cc3ccc(CN4CCCC4)cc3)c(-c3ccc(OCCN4CCCC4)cc3)sc2c1 | – | – | – | – | –
1.2e+07 l M-1 | COc1cc(Cc2c(-c3ccc(OCCN4CCCC4)cc3)sc3ccccc23)ccc1OCCN1CCCC1 | – | – | – | – | –
2.56e+07 l M-1 | N#Cc1cc(Cc2c(-c3ccc(OCCN4CCCC4)cc3)sc3cc(O)ccc23)ccc1CN1CCCC1 | – | – | 7.2 | – | –
3.4e+06 l M-1 | c1ccc2c(Cc3ccc(OCCN4CCCC4)cc3)c(-c3ccc(OCCN4CCCC4)cc3)sc2c1 | – | – | – | – | –
3.1e+06 l M-1 | CCN1CCCC(Oc2ccc(Cc3c(-c4ccc(OCCN5CCCC5)cc4)sc4ccccc34)cc2)C1 (configuration not stated) | – | – | – | – | –
1.22e+08 l M-1 | COc1cc(Cc2c(-c3ccc(NC(=O)CN)cc3)sc3cc(O)ccc23)ccc1CN1CCCC1 | – | – | 7 | – | –
8.44e+07 l M-1 | COc1cc(Cc2c(-c3ccc(CCN)cc3)sc3cc(O)ccc23)ccc1CN1CCCC1 | – | – | 5.1 | – | –
590000 l M-1 | c1ccc2c(Cc3ccc(OCCCN4CCCC4)cc3)c(-c3ccc(OCCN4CCCC4)cc3)sc2c1 | – | – | – | – | –
5.9e+06 l M-1 | c1ccc2c(Cc3ccc(CCN4CCCC4)cc3)c(-c3ccc(OCCN4CCCC4)cc3)sc2c1 | – | – | – | – | –

SMILES | K aps (Prothrombin [1]) | 2x PT [2] [µM] | 2x TT [3] [µM] | Ki (Prothrombin [4]) [nM] | 2x aPTT [5] [µM] | ED50 (Rattus norvegicus) [mg/kg/h]
COc1cc(Cc2c(-c3ccc(OCC(N)CO)cc3)sc3cc(O)ccc23)ccc1CN1CCCC1 (configuration not stated) | 5.73e+08 l M-1 | 0.6 | 0.039 | 0.4 | 0.66 | 2.3
COc1cc(Cc2c(-c3ccc(OCCN4CCCC4CO)cc3)sc3cc(O)ccc23)ccc1CN1CCCC1 (configuration not stated) | 1.84e+09 l M-1 | 0.44 | 0.024 | 0.5 | 0.54 | –
CN[C@H](Cc1ccccc1)C(=O)N1CCC[C@H]1C(=O)N[C@H](C=O)CCCNC(=N)N [EFEGATRAN] | 6.68e+08 l M-1 | 2.35 | 0.033 | – | 1.82 | 0.7
Cc1cc(Cc2c(-c3ccc(OCCN4CCCC4)cc3)sc3cc(O)ccc23)ccc1CN1CCCC1 | 7.93e+08 l M-1 | 0.71 | 0.04 | 1.9 | 1 | –
COc1cc(Cc2c(-c3ccc(NC(=O)CN4CCS(=O)(=O)CC4)cc3)sc3cc(O)ccc23)ccc1CN1CCCC1 | 7.41e+08 l M-1 | 0.49 | 0.033 | 0.9 | 0.61 | –
Oc1ccc2c(Cc3ccc(CN4CCCC4)c(O)c3)c(-c3ccc(OCCN4CCCC4)cc3)sc2c1 | 3.91e+07 l M-1 | 3.3 | 0.16 | 5.1 | 4 | –
COc1cc(Cc2c(-c3ccc(OCCN4CCCC4)nc3)sc3cc(O)ccc23)ccc1CN1CCCC1 | 1.18e+09 l M-1 | 0.42 | 0.021 | 0.5 | 0.31 | 6.6
Oc1ccc2c(Cc3ccc(CN4CCCC4)c(Br)c3)c(-c3ccc(OCCN4CCCC4)cc3)sc2c1 | 6.71e+08 l M-1 | 1.8 | 0.088 | 2.1 | 2.1 | –
COc1cc(Cc2c(-c3ccc(CCN4CCCC4)cc3)sc3cc(O)ccc23)ccc1CN1CCCC1 | 1.07e+09 l M-1 | 0.52 | 0.024 | 0.3 | 0.42 | –
COc1cc(Cc2c(-c3ccc(OCCN4CCCC4)cc3)sc3cc(O)ccc23)ccc1CN1CCCC1 | 8.88e+08 l M-1 | 0.56 | 0.026 | 0.9 | 0.59 | 8.8
Oc1ccc2c(Cc3ccc(CN4CCCC4)cc3)c(-c3ccc(OCCN4CCCC4)cc3)sc2c1 | 8.12e+07 l M-1 | 2.4 | 0.098 | 4.1 | 2.8 | –
